From article PMC6757289, “Design and Characterization of SGK3-PROTAC1, an Isoform Specific SGK3 Kinase PROTAC Degrader” (ACS Chemical Biology, 2019)
Like-named read-outs stand apart in the source and are kept apart here.

Columns and labels:
Assay in all cases: kinase profiling panel
Format in all cases: biochemical
ROCK 2 = ROCK 2 (Homo sapiens, UniProt O75116); conditions: read-out: % Activity Remaining
From the text: (§1) Protein kinase profiling against a Dundee panel of 140 protein kinases was undertaken at the International Centre for Protein Kinase Profiling. The result for each kinase was presented as a mean kinase activity of the reaction taken in triplicate relative to a control sample treated with DMSO. Assay conditions and abbreviations are available at http://www.kinase-screen.mrc.ac.uk.

CAMKK beta = CAMKK beta (Homo sapiens, UniProt Q96RR4); conditions: read-out: % Activity Remaining
From the text: as §1

TSSK1 = target: T1, TSSK1 (Homo sapiens, UniProt Q9BXA7); conditions: read-out: % Activity Remaining
T1 sequence (Q9BXA7 1-367): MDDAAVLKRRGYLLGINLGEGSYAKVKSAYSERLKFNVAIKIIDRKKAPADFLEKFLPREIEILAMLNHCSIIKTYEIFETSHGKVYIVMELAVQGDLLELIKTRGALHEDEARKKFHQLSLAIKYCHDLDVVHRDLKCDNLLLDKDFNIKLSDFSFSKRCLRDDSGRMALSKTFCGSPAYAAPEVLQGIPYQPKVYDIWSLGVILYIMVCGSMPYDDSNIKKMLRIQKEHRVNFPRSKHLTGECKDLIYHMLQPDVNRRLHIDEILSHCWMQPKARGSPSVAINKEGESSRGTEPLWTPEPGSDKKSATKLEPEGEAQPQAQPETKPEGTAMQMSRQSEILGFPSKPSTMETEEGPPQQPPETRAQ
From the text: as §1

PINK = target: T2, PINK (Tribolium castaneum, UniProt D6WMX4)
T2 sequence (D6WMX4 1-570): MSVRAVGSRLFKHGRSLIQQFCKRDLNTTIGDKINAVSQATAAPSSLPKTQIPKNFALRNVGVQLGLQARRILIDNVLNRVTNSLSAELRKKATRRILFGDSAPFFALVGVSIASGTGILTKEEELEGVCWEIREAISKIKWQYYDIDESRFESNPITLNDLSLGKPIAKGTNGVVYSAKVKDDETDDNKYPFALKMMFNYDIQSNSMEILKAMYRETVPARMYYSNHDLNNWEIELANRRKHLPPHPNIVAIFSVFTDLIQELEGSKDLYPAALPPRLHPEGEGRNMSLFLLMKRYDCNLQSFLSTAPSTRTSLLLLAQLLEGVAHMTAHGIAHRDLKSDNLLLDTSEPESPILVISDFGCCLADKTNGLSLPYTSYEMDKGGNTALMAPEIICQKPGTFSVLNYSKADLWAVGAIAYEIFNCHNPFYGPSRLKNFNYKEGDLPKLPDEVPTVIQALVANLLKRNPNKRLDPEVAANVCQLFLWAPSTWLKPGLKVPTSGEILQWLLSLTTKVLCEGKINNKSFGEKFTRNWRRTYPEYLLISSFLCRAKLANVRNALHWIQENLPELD
From the text: as §1

ABL = ABL (Homo sapiens, UniProt P00519); conditions: read-out: % Activity Remaining
From the text: as §1

YES1 = YES1 (Homo sapiens, UniProt P07947); conditions: read-out: % Activity Remaining
From the text: as §1

DDR2 = target: T3, DDR2 (Homo sapiens, UniProt Q16832); conditions: read-out: % Activity Remaining
T3 sequence (Q16832 22-855): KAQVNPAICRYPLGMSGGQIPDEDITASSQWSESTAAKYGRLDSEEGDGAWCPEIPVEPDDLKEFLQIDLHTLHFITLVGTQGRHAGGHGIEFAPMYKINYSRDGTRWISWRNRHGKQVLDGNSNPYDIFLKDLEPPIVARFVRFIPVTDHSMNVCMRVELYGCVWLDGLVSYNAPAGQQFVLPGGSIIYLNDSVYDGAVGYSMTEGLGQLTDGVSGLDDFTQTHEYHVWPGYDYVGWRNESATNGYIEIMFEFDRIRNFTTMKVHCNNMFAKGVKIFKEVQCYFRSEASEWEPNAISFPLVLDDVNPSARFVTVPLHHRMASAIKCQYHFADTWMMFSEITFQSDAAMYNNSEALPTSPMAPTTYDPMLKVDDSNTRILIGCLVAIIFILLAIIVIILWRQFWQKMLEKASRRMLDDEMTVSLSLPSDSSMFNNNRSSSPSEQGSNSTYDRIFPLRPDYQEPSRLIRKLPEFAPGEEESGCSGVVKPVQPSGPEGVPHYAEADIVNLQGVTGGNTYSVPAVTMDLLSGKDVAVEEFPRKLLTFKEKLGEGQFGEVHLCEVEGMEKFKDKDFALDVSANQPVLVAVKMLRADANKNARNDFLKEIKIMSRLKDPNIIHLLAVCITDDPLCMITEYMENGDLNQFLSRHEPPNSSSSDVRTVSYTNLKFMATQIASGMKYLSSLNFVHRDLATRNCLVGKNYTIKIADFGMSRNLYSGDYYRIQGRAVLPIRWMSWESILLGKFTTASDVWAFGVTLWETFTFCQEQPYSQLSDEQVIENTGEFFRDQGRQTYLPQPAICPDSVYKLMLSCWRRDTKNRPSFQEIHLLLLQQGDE
From the text: as §1

TAK1 = target: T4, TAK1 (Homo sapiens, UniProt O43318); conditions: read-out: % Activity Remaining
T4 sequence (O43318 1-303 limits assumed): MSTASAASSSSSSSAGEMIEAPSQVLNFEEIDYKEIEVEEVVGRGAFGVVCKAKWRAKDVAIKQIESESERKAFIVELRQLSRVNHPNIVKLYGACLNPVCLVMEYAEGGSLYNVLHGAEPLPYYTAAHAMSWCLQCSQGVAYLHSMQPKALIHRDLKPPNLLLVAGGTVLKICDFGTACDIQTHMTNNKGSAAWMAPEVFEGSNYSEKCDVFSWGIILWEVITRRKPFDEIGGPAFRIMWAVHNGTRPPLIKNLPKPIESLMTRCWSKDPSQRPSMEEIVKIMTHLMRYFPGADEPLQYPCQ
From the text: as §1

IRR = IRR (Homo sapiens, UniProt P14616); conditions: read-out: % Activity Remaining
From the text: as §1

Sequence of ABL (P00519 whole entry): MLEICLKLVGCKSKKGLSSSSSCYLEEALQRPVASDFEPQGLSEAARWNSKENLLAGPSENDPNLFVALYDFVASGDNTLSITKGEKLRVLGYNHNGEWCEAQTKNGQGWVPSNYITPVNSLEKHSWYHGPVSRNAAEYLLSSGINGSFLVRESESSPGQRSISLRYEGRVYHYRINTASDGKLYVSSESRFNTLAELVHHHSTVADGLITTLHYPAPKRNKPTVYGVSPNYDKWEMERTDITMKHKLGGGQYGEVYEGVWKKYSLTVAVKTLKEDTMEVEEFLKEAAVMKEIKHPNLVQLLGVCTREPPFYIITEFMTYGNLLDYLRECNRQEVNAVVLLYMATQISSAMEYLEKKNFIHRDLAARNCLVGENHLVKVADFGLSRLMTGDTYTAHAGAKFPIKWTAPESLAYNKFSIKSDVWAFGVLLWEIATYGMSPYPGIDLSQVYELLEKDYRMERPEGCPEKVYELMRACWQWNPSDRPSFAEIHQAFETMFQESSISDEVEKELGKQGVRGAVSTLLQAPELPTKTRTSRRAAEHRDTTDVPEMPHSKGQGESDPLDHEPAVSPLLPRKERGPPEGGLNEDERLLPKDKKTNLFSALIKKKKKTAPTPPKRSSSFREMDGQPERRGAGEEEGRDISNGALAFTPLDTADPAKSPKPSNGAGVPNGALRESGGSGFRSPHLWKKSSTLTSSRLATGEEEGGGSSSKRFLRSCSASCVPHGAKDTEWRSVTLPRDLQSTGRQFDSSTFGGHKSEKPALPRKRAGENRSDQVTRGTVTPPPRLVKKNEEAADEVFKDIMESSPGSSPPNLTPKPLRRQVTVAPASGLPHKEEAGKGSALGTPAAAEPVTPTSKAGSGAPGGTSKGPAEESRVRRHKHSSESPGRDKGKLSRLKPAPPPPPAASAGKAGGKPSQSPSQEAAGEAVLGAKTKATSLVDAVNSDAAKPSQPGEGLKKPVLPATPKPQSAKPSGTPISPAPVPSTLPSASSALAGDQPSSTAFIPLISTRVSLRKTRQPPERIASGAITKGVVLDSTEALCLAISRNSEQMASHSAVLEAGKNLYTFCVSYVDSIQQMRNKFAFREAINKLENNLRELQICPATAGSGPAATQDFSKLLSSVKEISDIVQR
Sequence of ROCK 2 (O75116 whole entry): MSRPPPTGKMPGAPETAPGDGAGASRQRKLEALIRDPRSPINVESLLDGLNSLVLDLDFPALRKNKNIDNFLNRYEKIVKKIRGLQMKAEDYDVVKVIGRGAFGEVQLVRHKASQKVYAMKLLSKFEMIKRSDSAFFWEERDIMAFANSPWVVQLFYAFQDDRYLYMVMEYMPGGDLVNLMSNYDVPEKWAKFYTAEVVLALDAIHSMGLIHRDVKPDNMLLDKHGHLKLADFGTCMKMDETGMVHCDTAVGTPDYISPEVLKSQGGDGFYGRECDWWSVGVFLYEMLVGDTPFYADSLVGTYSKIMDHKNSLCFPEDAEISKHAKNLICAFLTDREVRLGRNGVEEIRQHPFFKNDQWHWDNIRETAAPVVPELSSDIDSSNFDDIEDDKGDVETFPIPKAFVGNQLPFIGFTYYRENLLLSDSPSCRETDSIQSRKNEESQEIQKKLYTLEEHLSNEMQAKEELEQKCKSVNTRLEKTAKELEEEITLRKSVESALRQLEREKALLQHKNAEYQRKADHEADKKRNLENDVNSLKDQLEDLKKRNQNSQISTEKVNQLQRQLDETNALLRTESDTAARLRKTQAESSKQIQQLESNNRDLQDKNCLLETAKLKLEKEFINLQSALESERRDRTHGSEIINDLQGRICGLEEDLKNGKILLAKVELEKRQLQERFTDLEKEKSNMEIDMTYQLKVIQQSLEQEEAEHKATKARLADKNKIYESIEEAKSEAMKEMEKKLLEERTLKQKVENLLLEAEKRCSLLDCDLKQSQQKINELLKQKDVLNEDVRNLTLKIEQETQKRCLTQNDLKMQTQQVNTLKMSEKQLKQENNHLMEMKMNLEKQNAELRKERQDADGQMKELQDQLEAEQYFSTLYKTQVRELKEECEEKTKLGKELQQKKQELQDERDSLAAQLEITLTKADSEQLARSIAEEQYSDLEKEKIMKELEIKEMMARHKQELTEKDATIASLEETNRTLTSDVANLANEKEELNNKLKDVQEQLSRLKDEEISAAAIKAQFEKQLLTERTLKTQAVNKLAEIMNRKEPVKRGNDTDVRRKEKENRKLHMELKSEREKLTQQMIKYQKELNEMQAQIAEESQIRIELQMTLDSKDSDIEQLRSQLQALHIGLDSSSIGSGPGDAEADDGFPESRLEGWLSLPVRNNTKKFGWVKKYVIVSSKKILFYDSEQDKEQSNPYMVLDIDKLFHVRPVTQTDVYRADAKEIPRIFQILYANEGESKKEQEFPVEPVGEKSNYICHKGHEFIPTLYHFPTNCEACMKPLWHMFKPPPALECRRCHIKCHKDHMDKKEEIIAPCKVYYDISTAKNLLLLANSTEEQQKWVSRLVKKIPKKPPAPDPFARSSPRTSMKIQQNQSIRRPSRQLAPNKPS
Sequence of YES1 (P07947 whole entry): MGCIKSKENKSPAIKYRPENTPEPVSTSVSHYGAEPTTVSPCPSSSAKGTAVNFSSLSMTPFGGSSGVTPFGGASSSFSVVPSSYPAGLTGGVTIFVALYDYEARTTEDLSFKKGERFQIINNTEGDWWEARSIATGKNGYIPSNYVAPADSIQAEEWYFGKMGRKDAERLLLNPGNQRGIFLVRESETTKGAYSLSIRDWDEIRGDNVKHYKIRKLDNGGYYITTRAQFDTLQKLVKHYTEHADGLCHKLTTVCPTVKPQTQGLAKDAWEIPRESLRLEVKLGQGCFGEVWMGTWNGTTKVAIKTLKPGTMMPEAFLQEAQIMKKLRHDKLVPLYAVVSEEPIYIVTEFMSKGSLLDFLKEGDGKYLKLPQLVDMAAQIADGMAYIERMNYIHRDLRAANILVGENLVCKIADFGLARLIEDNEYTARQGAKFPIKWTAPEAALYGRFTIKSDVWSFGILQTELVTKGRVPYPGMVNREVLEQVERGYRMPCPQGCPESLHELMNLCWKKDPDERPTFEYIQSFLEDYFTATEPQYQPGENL
Sequence of IRR (P14616 27-1297): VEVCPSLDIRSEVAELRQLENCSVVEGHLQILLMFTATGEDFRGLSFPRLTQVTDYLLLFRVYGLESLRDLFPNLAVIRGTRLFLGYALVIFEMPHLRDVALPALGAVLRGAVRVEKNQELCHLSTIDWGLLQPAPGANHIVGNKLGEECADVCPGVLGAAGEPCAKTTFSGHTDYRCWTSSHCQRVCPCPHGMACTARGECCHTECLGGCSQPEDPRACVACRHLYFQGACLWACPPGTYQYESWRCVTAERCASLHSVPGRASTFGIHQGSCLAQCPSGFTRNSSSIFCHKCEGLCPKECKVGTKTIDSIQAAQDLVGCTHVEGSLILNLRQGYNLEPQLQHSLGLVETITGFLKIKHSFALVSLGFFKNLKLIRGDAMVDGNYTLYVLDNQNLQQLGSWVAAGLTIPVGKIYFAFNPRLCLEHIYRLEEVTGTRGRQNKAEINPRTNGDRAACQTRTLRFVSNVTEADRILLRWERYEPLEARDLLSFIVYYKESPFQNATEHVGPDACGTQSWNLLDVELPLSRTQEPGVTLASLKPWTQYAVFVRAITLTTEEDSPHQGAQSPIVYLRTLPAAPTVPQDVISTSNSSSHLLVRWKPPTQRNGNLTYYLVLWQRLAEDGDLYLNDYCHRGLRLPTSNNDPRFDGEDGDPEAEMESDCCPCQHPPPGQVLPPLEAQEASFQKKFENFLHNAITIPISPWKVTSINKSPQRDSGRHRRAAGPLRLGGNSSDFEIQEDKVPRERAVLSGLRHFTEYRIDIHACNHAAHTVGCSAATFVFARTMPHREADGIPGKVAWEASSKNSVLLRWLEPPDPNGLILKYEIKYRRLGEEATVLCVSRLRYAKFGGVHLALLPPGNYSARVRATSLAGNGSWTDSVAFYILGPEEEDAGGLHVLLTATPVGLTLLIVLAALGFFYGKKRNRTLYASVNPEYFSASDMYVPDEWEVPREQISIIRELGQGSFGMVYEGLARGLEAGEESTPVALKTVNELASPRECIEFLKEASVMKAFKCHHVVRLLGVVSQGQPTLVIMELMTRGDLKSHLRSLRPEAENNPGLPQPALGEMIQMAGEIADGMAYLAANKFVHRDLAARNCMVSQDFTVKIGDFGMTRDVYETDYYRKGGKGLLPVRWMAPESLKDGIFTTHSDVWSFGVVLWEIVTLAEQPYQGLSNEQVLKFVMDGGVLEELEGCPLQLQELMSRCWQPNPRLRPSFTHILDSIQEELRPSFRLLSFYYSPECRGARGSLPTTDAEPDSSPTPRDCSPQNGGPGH
Sequence of CAMKK beta (Q96RR4 whole entry): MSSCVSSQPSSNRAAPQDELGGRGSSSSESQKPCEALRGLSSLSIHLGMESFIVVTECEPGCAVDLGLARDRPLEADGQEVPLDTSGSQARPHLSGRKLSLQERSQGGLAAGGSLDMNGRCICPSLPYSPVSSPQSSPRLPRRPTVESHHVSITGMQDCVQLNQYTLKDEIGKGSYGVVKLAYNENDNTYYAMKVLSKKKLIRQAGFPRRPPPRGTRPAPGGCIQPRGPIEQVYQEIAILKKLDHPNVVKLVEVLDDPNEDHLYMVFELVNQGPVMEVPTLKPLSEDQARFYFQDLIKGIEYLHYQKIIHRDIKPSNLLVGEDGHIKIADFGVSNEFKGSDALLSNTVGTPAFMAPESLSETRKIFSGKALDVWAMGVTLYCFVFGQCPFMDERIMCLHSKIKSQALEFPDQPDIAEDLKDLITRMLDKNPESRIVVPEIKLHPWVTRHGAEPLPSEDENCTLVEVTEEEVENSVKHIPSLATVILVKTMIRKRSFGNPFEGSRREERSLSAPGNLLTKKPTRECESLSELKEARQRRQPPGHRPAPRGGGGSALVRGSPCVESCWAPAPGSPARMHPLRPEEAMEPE

Structure (SMILES) | remaining activity at 1 µM (ROCK 2) | remaining activity at 1 µM (CAMKK beta) | remaining activity at 1 µM (TSSK1) | remaining activity at 1 µM (PINK) | remaining activity at 1 µM (ABL) | remaining activity at 1 µM (YES1) | remaining activity at 1 µM (DDR2) | remaining activity at 1 µM (TAK1) | remaining activity at 1 µM (IRR) | remaining activity at 1 µM (ROCK 2; 1 µM) | remaining activity at 1 µM (CAMKK beta; 1 µM) | remaining activity at 1 µM (TSSK1; 1 µM) | remaining activity at 1 µM (ABL; 1 µM) | remaining activity at 1 µM (YES1; 1 µM) | remaining activity at 1 µM (DDR2; 1 µM) | remaining activity at 1 µM (TAK1; 1 µM) | remaining activity at 1 µM (IRR; 1 µM)
COc1ccc(Cl)c(S(=O)(=O)Nc2ccc(-c3nc(OC[C@H]4CNCCO4)c4c(C)n[nH]c4n3)cc2)c1 [290-R, reference compound] | 105% | 77% | 98% | 99% | 88% | 92% | 80% | 101% | 96% |  |  |  |  |  |  |  | 
Cc1ccc(F)c(S(=O)(=O)Nc2ccc(-c3nc(OC[C@H]4CNCCO4)c4cn[nH]c4n3)cc2)c1 [308-R, reference compound] | 74% | 106% | 94% | 119% | 96% | 71% | 106% | 74% | 106% |  |  |  |  |  |  |  | 
Cc1ccc(F)c(S(=O)(=O)Nc2ccc(-c3nc(OC[C@H]4CN(CCCCCCOCCOCCOCC(=O)N[C@H](C(=O)N5C[C@H](O)C[C@H]5C(=O)NCc5ccc(-c6scnc6C)cc5)C(C)(C)C)CCO4)c4cn[nH]c4n3)cc2)c1 [SGK3-PROTAC1] |  |  |  | 108% |  |  |  |  |  | 113% | 99% | 115% | 111% | 108% | 114% | 108% | 103%
Cc1ccc(F)c(S(=O)(=O)Nc2ccc(-c3nc(OC[C@H]4CN(CCCCCCOCCOCCOCC(=O)N[C@H](C(=O)N5C[C@@H](O)C[C@H]5C(=O)NCc5ccc(-c6scnc6C)cc5)C(C)(C)C)CCO4)c4cn[nH]c4n3)cc2)c1 [cisSGK3-PROTAC1] |  |  |  | 109% |  |  |  |  |  | 119% | 108% | 113% | 112% | 105% | 134% | 107% | 90%
